Assay results reported in patent EP4759810A1, “PROTAC TARGETING BCL-XL PROTEIN AND USE THEREOF” (BEIJING SUNCELL BIO-MEDICAL CO., LTD., priority 2023, dated 2025).
Like-named read-outs stand apart in the source and are kept apart here. Values belong to the compound of their own block, whether it stands above or below them.

Experiments:
Molt-4 cells [1] = assay: Detection of E3 enzyme-dependence: Molt-4 cell killing with or without pomalidomide (CCK-8); format: cell-based; conditions: 10 µM pomalidomide, Figure 2
Procedure: (§1) Actively growing and healthy Molt-4 cells were collected, centrifuged at 1000 rpm for 5 minutes, and after removing the supernatant, the cells were resuspended in fresh RPMI-1640 medium containing 10% fetal bovine serum. Cell counting was then performed. The cell density was adjusted to 120,000 cells per milliliter, and 100 µL of the cell suspension was added to each well of a 96-well transparent cell culture plate. It was noted that the edge wells of the 96-well plate were not used for testing, and 300 µL of PBS alone was added to these wells to reduce medium evaporation.
Molt-4 cells were plated in duplicate according to the number of the tested small molecules, so as to test the effects with and without the addition of pomalidomide (a competitive ligand specific for E3 ligase), in which one half of the parallel cells was added 10 µM pomalidomide. A series of small molecule concentration gradients (0.001, 0.003, 0.01, 0.03, 0.1, 0.3, 1, and 3 µM) were pre-set, and a series of 2× drug dilutions for the above concentrated were prepared in DMEM medium containing 10% fetal bovine serum. 100 µL of the above DMEM medium containing the gradient concentrations of the drug was added to 96-well plates that have been pre-plated with cells, so that the final drug concentration in each well was the pre-set series of concentrations respectively. Three replicate wells were used for each test drug concentration. The 96-well plates were placed back in a 37°C incubator, and the cell viability was detected after three days.
(§2) Cell viability after drug treatment was detected by using the CCK-8 method: three days after adding the drugs, the plates were taken out, and the supernatant was discarded. Then, 100 µL of pre-prepared CCK-8 working solution was added to each well. The CCK-8 working solution was obtained through diluting a CCK-8 stock solution (C0041, Beyotime) by 10-fold volumn with a serum-free DMEM culture medium. The 96-well plates with the added CCK-8 working solution were placed back in the 37°C incubator and incubated for 0.5-2 hours. The plates were then taken out, and the absorbance value (OD value) of each well was measured at a wavelength of 450 nm. The cell viability in each experimental group was calculated according to the following formula: Relative cell viability (%) = (Blank control group - Experimental group) / Blank control group × 100%.

Molt-4 cells [2] = assay: Molt-4 cell killing activity test (CCK-8); format: cell-based; conditions: for EC50: Homo sapiens
Procedure: as §1, with “Molt-4 cells were cultured and amplified in 10 cm dishes by using RPMI-1640 medium supplemented with 10% fetal bovine serum. Actively” for “Actively”, “testing;” for “testing,”
The small molecule compounds to be tested for activity were prepared. A series of small molecule concentration gradients (0.001, 0.003, 0.01, 0.03, 0.1, 0.3, 1, and 3 µM) were pre-set, and a series of 2× drug dilutions for the above concentrations were prepared in RPMI-1640 medium containing 10% fetal bovine serum. 100 µL of the above medium containing the gradient concentrations of the drug was added to each well of a 96-well plate pre-seeded with cells, so that the final drug concentration in each well was the pre-set concentration gradient. Three replicate wells were used for each tested drug concentration. The 96-well plate was placed back in a 37°C incubator, and the cell viability was measured after three days.
as §2, with “The plate” for “Cell viability after drug treatment”, “taken out” for “detected by using the CCK-8 method:”, “drugs,” for “drugs, the plates were taken out,”, “and” for “and the supernatant was discarded. Then,”, “RPMI-1640” for “DMEM culture”, “nm, and the” for “nm. The”

HEF cells = assay: Senescent cell killing activity test, HEF cell model (CCK-8); format: cell-based, human; conditions: higher concentration (25 µM)
Procedure: To avoid replication of the induced senescent cells, low-passage proliferating HEF cells (<10 passages), MRC5 cells (<6 passages), and BJ cells (<10 passages) were used as normal controls. For chemical drug induced senescence, HEF cells were treated with 10 µM etoposide (Selleck, S1225) for 36-48 hours, MRC5 cells were treated with 5 µM bleomycin (Selleck, S1225) for 72 hours, and BJ cells were treated with 10 µg/mL bleomycin for 72 hours. Three days after the treatment, the cells were subcultured in fresh culture medium at a 1:3 ratio for 72 hours before further analysis and use.
Non-senescent and induced-senescent HEF cells, non-senescent and induced-senescent MRC5 cells, and non-senescent and induced-senescent BJ cells were respectively digested with trypsin, and centrifuged at 1000 rpm for 5 minutes. Then, the supernatant was removed, and the cells were resuspended in fresh DMEM culture medium containing 10% fetal bovine serum for counting. The cell density was adjusted so that the non-senescent cell density was 4000 cells/100 µL and the senescent cell density was 7000 cells/100 µL. 100 µL of the cell suspension was added to each well of a 96-well transparent cell culture plate. It was noted that the edge wells of the 96-well plate were not used as testing wells, and 300 µL of PBS alone was added to these wells to reduce evaporation of the culture medium. The 96-well plates with the well-plated cells were placed back in a 37°C incubator for overnight culture until the cells adhered. On the next day, the small molecule compounds to be tested were prepared and added after the cells had adhered.
A series of small molecule concentration gradients (0.01, 0.03, 0.1, 0.3, 1, 3, 10, and 25 µM) were pre-set, and a series of 2× drug dilutions for the above concentrations were prepared in DMEM culture medium containing 10% fetal bovine serum. 100 µL of the above DMEM culture medium containing the gradient concentrations of the drug was added to each well of the 96-well plate that had been well-plated with cells, so that the final drug concentration in each well was the pre-set series of concentrations. Three replicate wells were used for each test drug concentration. The 96-well plates were placed back in a 37°C incubator, and cell viability was measured after three days.
Three days after adding the drug, the plates were taken out, and the supernatant was discarded. 100 µL of pre-prepared CCK-8 working solution was added to each well. The CCK-8 working solution was obtained through diluting a CCK-8 stock solution (C0041, Beyotime) with a serum-free DMEM culture medium by 10-fold volumn. The 96-well plates containing the CCK-8 working solution were placed back in the 37°C incubator and incubated for 0.5-2 hours. The plates were then taken out, and the absorbance value (OD value) of each well was measured at a wavelength of 450 nm. The cell viability in each experimental group was calculated according to the following formula: Relative cell viability (%) = (Blank control group - Experimental group) / Blank control group × 100%.

Bcl-xL protein = biological target: T1, Bcl-xL protein (Homo sapiens, UniProt Q07817); assay: Degradation experiment of Bcl-xL target protein (Western blot in Molt-4 cells); format: cell-based; conditions: 100 nM, 0, 2, 6, 16 h, GAPDH internal control, Figure 4
T1 construct: host or cells: Molt-4 cells
Procedure: Actively growing and healthy Molt-4 cells were subcultured into a fresh RPMI-1640 medium containing 10% fetal bovine serum, and each PROTAC molecule was added thereto at a final concentration of 100 nM. After drug treatment for the specified times (0, 2, 6, and 16 hours), the cells were collected, the supernatant was discarded by centrifugation, and the cells were washed twice with pre-cooled PBS buffer. Total protein was extracted with a lysis buffer (Servicebio, G2002-100ML), and the protein concentration was normalized by using a BCA protein quantification kit (Servicebio, G2026). Protein samples were mixed with a protein-loading buffer and incubated at 95°C for 5 minutes. Western blotting experiments were performed by using the following antibodies: Bcl-xL (Abcam, catalog number ab32370), diluted at 1:500; GAPDH antibody (Servicebio, catalog number GB15004), diluted at 1:1000; and horseradish peroxidase-conjugated goat anti-rabbit secondary antibody (Servicebio, catalog number GB23303), diluted at 1:5000.

[3] = Metabolic stability assay in liver microsomes (mouse); format: in vitro ADME
Procedure: (§3) The metabolic reaction of compounds in liver microsome was performed in a system with a total volume of 400 µL, and the following steps below were sequentially performed for the reaction and detection: 1) 200 µL of phosphate buffer (200 mM), 106 µL of sterile ultrapure water, and 40 µL of magnesium chloride solution (50 mM) were added to each detection tube to prepare a reaction working solution. 2) Two reaction systems with or without adding NADPH were prepared for each compound to be tested. For the reaction system with adding NADPH: 10 µL of liver microsomes (20 mg/mL) and 40 µL of NADPH (10 mM) were added to the above working solution; for the reaction system without adding NADPH: 10 µL of liver microsomes (20 mg/mL) and 40 µL of sterile ultrapure water were added to the above working solution. The final concentration of liver microsomes in both reaction systems was 0.5 mg/mL. 3) 4 µL of the compound to be tested ([…]) was added to each reaction tube, resulting in a final concentration of 1 µM for the compound in the reaction system. The detection tubes were placed at 37°C for reaction. 4) 50 µL samples were taken from each detection tube at 0, 15, 30, 45, and 60 minutes after adding the compound. The reaction was terminated by adding cold acetonitrile containing IS (100 nM alprazolam, 200 nM labetalol, 200 nM caffeine, and 2 µM ketoprofen) in a 4× volume. The samples were centrifuged at 3220 g for 40 minutes, 100 µL of the supernatant was mixed with 100 µL of ultrapure water, and a sample was taken for LC-MS/MS analysis.
(§4) Calculation of in vitro liver microsomal metabolic half-life and in vitro metabolic intrinsic clearance rate: The LC-MS detection results were analyzed to obtain the percentage of the remaining amount of the tested compound relative to the initial amount at each time point. The natural logarithm of the remaining percentage was linearly fitted against the incubation time.

[4] = Metabolic stability assay in liver microsomes (human); format: in vitro ADME
Procedure: as §3, §4

[5] = 72 h, Molt-4 cells, three days, CCK-8, read-out: EC50 (Molt-4)
[6] = mouse liver microsomes 0.5 mg/mL, 1 µM compound, 37°C
[7] = human liver microsomes 0.5 mg/mL, 1 µM compound, 37°C

T1 sequence (Q07817 whole entry): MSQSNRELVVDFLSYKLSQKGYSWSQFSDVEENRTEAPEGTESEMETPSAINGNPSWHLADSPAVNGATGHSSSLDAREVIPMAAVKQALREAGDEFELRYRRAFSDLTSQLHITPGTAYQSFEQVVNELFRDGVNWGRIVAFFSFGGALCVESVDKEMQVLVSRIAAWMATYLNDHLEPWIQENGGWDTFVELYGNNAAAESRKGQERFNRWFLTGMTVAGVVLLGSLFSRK

SMILES: CC1(C)CCC(c2ccc(Cl)cc2)=C(CN2CCN(c3ccc(C(=O)NS(=O)(=O)c4ccc(N[C@H](CCN5CCOCC5)CSc5ccccc5)c(S(=O)(=O)C(F)(F)F)c4)cc3)CC2)C1 [ABT-263, reference compound]
cell killing activity after addition of pomalidomide (+poma) compared to without (-poma) (Molt-4 cells [1]): only slightly affected
EC50 (Molt-4 cells [2]; [5]): 100 to 1000 nM
toxicity on normal non-senescent HEF cells (HEF cells): toxic killing effects on normal non-senescent HEF cells

SMILES: Cc1ncsc1-c1ccc([C@H](C)NC(=O)[C@@H]2C[C@@H](O)CN2C(=O)[C@@H](NC(=O)CN2CCN(CC#Cc3ccc(OCCCc4ccc(N5CCc6cccc(C(=O)Nc7nc8ccccc8s7)c6C5)nc4C(=O)O)c(F)c3)CC2)C(C)(C)C)cc1 [APH1]
EC50 (Molt-4 cells [2]; [5]): 10 to 100 nM
degradation of the Bcl-xL protein (Bcl-xL protein): had the ability to degrade the Bcl-xL protein

Clint [3, 6]: 17.61 µL/min/mg protein
T1/2 [3, 6]: 1.312 h
Clint [4, 7]: 53.56 µL/min/mg protein
T1/2 [4, 7]: 0.4313 h
SMILES: [2H]C1([2H])CN(c2ccc(-c3cnn(CC45CC6CC(CC(C6)C4)C5)c3C)c(C(=O)O)n2)Cc2c(C(=O)Nc3nc4ccccc4s3)cccc21 [Compound A13D-5]

Clint [3, 6]: 14.07 µL/min/mg protein
T1/2 [3, 6]: 1.642 h
Clint [4, 7]: 50.18 µL/min/mg protein
T1/2 [4, 7]: 0.4603 h
SMILES: [2H]C1([2H])Cc2cccc(C(=O)Nc3nc4ccccc4s3)c2CN1c1ccc(-c2cnn(CC34CC5CC(CC(C5)C3)C4)c2C)c(C(=O)O)n1 [Compound A13D-6]
metabolic stability in liver microsomes, in words ([4]; human and mouse liver microsomes, compared with A-1331852 and molecules deuterated at other sites): better metabolic stability in liver microsomes

SMILES: Cc1c(-c2ccc(N3CCc4cccc(C(=O)Nc5nc6ccccc6s5)c4C3)nc2C(=O)O)cnn1CC12CC3CC(CC(C3)C1)C2 [Compound A1331852, reference compound]
cell killing activity after addition of pomalidomide (+poma) compared to without (-poma) (Molt-4 cells [1]): only slightly affected

Clint [3, 6]: 4.90 µL/min/mg protein
half-life at 1 µM [3, 6]: 4.71 h
microsomal CLint at 1 µM ([3]; mouse liver microsomes, read-out: clearance rate (metabolic clearance rate)): 4.9 µL/min/mg
Clint [4, 7]: 7.36 µL/min/mg protein
half-life at 1 µM [4, 7]: 3.14 h
microsomal CLint at 1 µM ([4]; human liver microsomes, read-out: clearance rate (metabolic clearance rate)): 7.36 µL/min/mg
SMILES: O=C(Nc1nc2ccccc2s1)c1cccc2c1CN(c1ccc(CCCOc3ccc(C#CCN4CCNCC4)cc3F)c(C(=O)O)n1)CC2 [Compound C1]
cell killing activity after addition of pomalidomide (+poma) compared to without (-poma) (Molt-4 cells [1]): only slightly affected
killing Molt-4 cells at different concentrations (Figure 1), in words (Molt-4 cells [2]; Figure 1, 0.001-3 µM, comparison with control molecules): higher percentage for killing Molt-4 cells than those of ABT-263 and DT-2216, but lower than those of A-1331852 and A-1155463
EC50 (Molt-4 cells [2]; [5]): 10 to 100 nM
EC50 (Molt-4 cells [2]; Bcl-xL-positive Molt-4 cells, read-out: cellular activity / killing activity (Molt-4 cells)): 10 to 100 nM
activity for killing Molt-4 cells, in words (Molt-4 cells [2]; comparison with C1, the targeting ligand or control molecules): higher than that of the commercially available control molecule ABT-263, but lower than those of A-1331852 and A-1155463

SMILES: Cc1ncsc1-c1ccc([C@H](C)NC(=O)[C@@H]2C[C@@H](O)CN2C(=O)[C@@H](NC(=O)CCCCCC(=O)N2CCN(CC[C@H](CSc3ccccc3)Nc3ccc(S(=O)(=O)NC(=O)c4ccc(N5CCN(CC6=C(c7ccc(Cl)cc7)CCC(C)(C)C6)CC5)cc4)cc3S(=O)(=O)C(F)(F)F)CC2)C(C)(C)C)cc1 [DT-2216, reference compound]
cell killing activity after addition of pomalidomide (+poma) compared to without (-poma) (Molt-4 cells [1]): almost unaffected
